The target of experiment [1] is Tie 2 (Homo sapiens, UniProt Q02763). In words: In vitro pull down assay of Tie 2 from EaHy926 cell lysate. It is filed as binding. Further details: a cell lysate of EaHy926 endothelial cells (which express high levels of Tie 2) was prepared; endogenous in cells; host or cells: EaHy926 endothelial cells. How it is done:
In this example, the ability of Vasculotide to bind the Tie 2 receptor, despite the engineered modifications, was tested using an in vitro pull down assay. In the pull down assay, a cell lysate of EaHy926 endothelial cells (which express high levels of Tie 2) was prepared in Phospho Lipase Cγ lysis buffer (50 mM Hepes buffer pH 7.5, 150 mM NaCl, 10% glycerol, 1% Triton X-100, 1.5 mM MgCl2, 1.0 mM EGTA, 10 mM NaPPi, […], 2 mM Na3VO4, 1× aprotinin, 1× leupeptin and 1×PMSF). The whole cell lysate was mixed with either unclustered biotinylated Vasculotide or biotinylated irrelevant peptide. The biotinylated peptides then were isolated with avidin agarose and subsequently tested for their ability to precipitate Tie 2 via standard immunoblot analysis using anti-Tie 2 antibody.

Experiment [2] deals with HUVEC. In words: Serum withdrawal-induced cell death, Cell Death ELISA. It is filed as cell-based, human. Particulars: F12 plus 0.1% FBS, 16 hours; clustered Vasculotide at 500 pM (p=0.002) vs non-treated cells. How it is done:
Based on the fact that clustered Vasculotide strongly activates the anti apoptotic protein AKT (see Example 3), the ability of Vasculotide to protect ECs from serum withdrawal-induced death was examined. To do so, HUVEC were maintained in F12 media plus 0.1% FBS for 16 hours in the presence of various concentrations of unclustered or clustered Vasculotide, followed by analysis of cell apoptosis via cell death ELISA. Analysis of apoptosis was performed using Cell Death ELISA Plus (Roche) according to manufacturers' specifications. The results are shown in FIG. 2A, in which values were normalized to basal levels of cell death for HUVECs maintained in full 10% FBS, growth factor supplemented F12 media. The results shown represent the mean of three replicates plus or minus 1 SD. Student's T-test was used for statistical analysis with P value indicated.
For orientation: ELISA stands for enzyme-linked immunosorbent assay.

The test system of experiment [3] is HUVEC. Kind of experiment: Modified Boyden chamber migration assay. It is filed as cell-based, human. Particulars: for Chemotactic cell migration versus no treatment: 4 hours, clustered Vasculotide 2 nM and 10 nM.
Method: To test if Vasculotide, like Ang 1, was capable of promoting these processes, the effect of Vasculotide on EC migration was tested using a modified Boyden chamber assay. HUVEC were seeded at a density of 8.4×10^4 cells in 500 μl of F12 growth media plus 0.1% FBS in the upper chamber of an 8 μm pore size modified Boyden chamber (Falcon). 500 μl of F12 media plus 0.1% FBS plus various growth factors (Ang 1 (R& D Systems), unclustered or clustered Vasculotide, VEGF (R&D Systems) or clustered Vasculotide in combination with VEGF) or controls were placed in the bottom chamber. Cells were allowed to migrate for 4 hours in a 37° C., 5% CO2 incubator. Nonmigrating cells were scraped off, and filters were fixed in 100% methanol for 5 minutes, stained with Harris' Hematoxylin (BDH) for 10 minutes and washed twice with tap water for 3 minutes each. Filters were then mounted using Aquapolymount mounting medium. Cells that had migrated more than 50% of the way through the pore were scored as positive for migration.
Student's t test was used to test the statistical significance with a 95% confidence interval. Stimulations were performed in triplicate and migrating cells in 6 microscopic fields per replicate were counted.
Experiment [4] deals with Cos 1 fibroblast cells and C166 EC's (phenotypically null for Tie 2). Kind of experiment: MAPK and AKT phosphorylation in Ad-EGFP infected cells null for Tie 2. It is filed as cell-based. Particulars: EGFP infected Cos 1 and C166 cells. How it is done: To more formally address the specificity of clustered Vasculotide for the Tie 2 receptor, reconstitution experiments were performed in Cos 1 fibroblast cells and C166 EC's, both of which are phenotypically null for Tie 2. Cos 1 and C166 cells (ATCC) were maintained on 10-cm-diameter plates (Nunc) in Dulbecco's modified Eagle's medium (DMEM) supplemented with 10% (FBS), 1× penicillin, 1× streptomycin, and 200 mM L-glutamine (all Gibco BRL) in a 5% CO2 incubator at 37° C. Cos1 or C166 cells were infected (MOI 30) overnight with adenoviruses encoding one of either enhanced green fluorescent protein (EGFP) or Tie 2. Infection efficiency was confirmed by epifluorescence (EGFP), or by immunoblot (Tie 2).
Cells infected with recombinant adenovirus encoding EGFP or Tie 2 were either left unstimulated or stimulated with Vasculotide, clustered Vasculotide or avidin for 16 hours, after which MTS reagent was applied to all samples for 4 hours. Absorbance at 492 was measured using a multiwell plate reader (Power Wave X340, Biotek Instruments Inc). To broadly examine the potential that clustered Vasculotide was activating Tie 2-independent downstream signalling pathways, the activation of MAPK and AKT in the EGFP infected cells was examined. […] This fact precluded us from stimulating these cells any further with Vasculotide or clustered Vasculotide.

Experiment [5] concerns B6.Cg-m(+/+)Lepr(db)/J (db/db) mice. In words: Excisional wound healing in diabetic mice, topical application. It is filed as in vivo, mouse. How it is done: Pathogen free, nine week old B6.Cg-m(+/+)Lepr(db)/J (db/db) mice were purchased from Jackson Laboratories. Circular, full excisional, 6 mm diameter wounds were made, according to animal committee approval guidelines, equal distant apart on the dorsal side of the mice. Various factors were suspended in sterile Intrasite Topical Gel (Smith and Nephew) at noted concentrations. Treatments were as follows: Vehicle n=8, bFGF (10 μg/ml) n=8, clustered Vasculotide (20 nM) n=4, clustered Vasculotide (5 nM) n=4. Preparations were applied at day 0 (time of wounding), day 2, 4 and 6. Standardized images were taken on days 0, 2, 4, 6 and 7 using a Canon EOS digital Rebel camera. Image J (NIH) was used to manually outline wound perimeter from which total pixel counts (wound area) were determined. Mice were sacrificed on day 7 and full wound beds including margin were excised and fixed in 4% PFA. Wounds were cut in half at the widest point and each half was prepared for either paraffin or frozen sections. Wax sections were processed according to standard protocols for H&E and Masson's Trichrome stain. Images were captured using a Leica DMLS compound light microscope and Pixel Link camera at 5× and 20×. Student's t test was used to test the statistical significance.
For histological scoring, sections were fixed in 4% paraformaldehyde, embedded in paraffin and sectioned and stained with H & E and Masson's trichrome. Sections were evaluated by a pathologist for re-epithelialization, granulation tissue formation, and inflammation, with criteria used for scoring skin as follows:
• 0—none • 1—minimal (0-20% regrowth from wound margins) • 2—mild (25% to 50% regrowth) • 3—moderate (>50% regrowth, up to 100% but not >2 cells thick along length) • 4—complete regrowth (epithelium>1 cell thick along length, keratinized) Granulation Tissue (GT) and Neovascularization: • 0—none • 1—minimal (1-3 small, isolated islands of GT at margins of defect) • 2—mild (multifocal, patchy islands of GT underlying tissue defect, <10 new blood vessels) • 3—moderate (locally extensive bands of GT underlying length of defect) • 4—marked (dense bands of GT at margins and underlying length of defect with collagen fibrils and numerous blood vessels) Inflammation (within Defect): • 0—none • 1—minimal (a few scattered neutrophils at margins of defect) • 2—mild (multifocal aggregates of up to 5 neutrophils underlying defect) • 3—moderate (multifocal aggregates of up to 10 neutrophils and occasional macrophages, minimal to mild edema) • 4—marked (locally extensive, dense neutrophilic infiltrates with lesser numbers of macrophages, mild-moderate edema)

Chain of Tie 2 (Q02763 23-1124): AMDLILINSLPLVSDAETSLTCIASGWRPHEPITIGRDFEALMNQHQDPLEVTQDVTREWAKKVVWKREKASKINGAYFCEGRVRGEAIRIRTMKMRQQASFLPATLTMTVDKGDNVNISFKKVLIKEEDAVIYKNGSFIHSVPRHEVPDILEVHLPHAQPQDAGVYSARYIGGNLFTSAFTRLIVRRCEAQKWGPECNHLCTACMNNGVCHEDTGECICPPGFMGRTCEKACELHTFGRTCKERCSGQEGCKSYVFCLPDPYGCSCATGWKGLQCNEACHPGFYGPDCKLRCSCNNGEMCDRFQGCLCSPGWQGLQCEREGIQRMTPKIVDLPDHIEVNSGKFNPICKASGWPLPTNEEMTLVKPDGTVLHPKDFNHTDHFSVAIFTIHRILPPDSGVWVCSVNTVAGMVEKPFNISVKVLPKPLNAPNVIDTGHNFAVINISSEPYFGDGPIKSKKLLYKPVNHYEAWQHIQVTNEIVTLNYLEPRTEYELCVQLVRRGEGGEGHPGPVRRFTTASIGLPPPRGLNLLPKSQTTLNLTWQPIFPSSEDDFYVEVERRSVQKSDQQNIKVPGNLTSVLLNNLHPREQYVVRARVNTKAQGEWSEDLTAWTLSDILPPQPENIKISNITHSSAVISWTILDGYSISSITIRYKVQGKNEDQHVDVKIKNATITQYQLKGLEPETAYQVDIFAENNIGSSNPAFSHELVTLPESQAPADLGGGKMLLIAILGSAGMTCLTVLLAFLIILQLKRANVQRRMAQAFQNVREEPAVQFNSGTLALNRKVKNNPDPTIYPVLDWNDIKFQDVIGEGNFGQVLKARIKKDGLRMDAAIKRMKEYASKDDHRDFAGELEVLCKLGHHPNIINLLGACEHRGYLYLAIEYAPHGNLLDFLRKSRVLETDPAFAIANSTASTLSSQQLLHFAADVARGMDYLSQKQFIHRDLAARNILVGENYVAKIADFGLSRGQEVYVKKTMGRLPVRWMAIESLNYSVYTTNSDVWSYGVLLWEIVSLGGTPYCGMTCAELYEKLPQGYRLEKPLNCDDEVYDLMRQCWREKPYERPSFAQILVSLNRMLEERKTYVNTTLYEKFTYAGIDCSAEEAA

Turning to “Vasculotide: biotinylated T7 peptide-PEG: Cys-His-His-His-Arg-His-Ser-Phe (SEQ ID NO: 2) conjugated to EZ-link-PEO-maleimide-biotin”, the “Precipitation of Tie 2 (avidin agarose pull down, anti-Tie 2 immunoblot)” value in experiment [1] (EaHy926 whole cell lysate, unclustered biotinylated peptide) is “able to precipitate Tie 2”. The “Apoptosis / survival after serum withdrawal” value in experiment [2] is listed as “no effect on survival”. Moreover, the “Chemotactic cell migration versus no treatment” value in experiment [3] is reported as “did not promote migration above that seen in the untreated sample”. Moreover, the “Phosphorylation of MAPK or AKT above non-stimulated samples” value in experiment [4] is given as “Neither Vasculotide nor clustered Vasculotide significantly induced phosphorylation of MAPK or AKT”. In addition, the “Granulation tissue production (H&E and MT staining)” value in experiment [5] (day 7 wound sections) is “dramatic increases in granulation tissue production”.
For the substance “clustered Vasculotide: Vasculotide clustered with avidin in a 4:1 ratio, an obligate tetrameric compound”, in experiment [1] (ten fold excess, preclustered with soluble avidin), the “Competition for available Tie 2 in the pull down” value was “able to abolish this interaction”. In addition, the “Apoptosis / survival after serum withdrawal” value in experiment [2] is “statistically significant decrease in apoptosis”. Besides, in experiment [3], the “Chemotactic cell migration versus no treatment” value is “significant increases in chemotactic cell migration”. The “Migration compared with VEGF or Ang 1” value in experiment [3] (VEGF 100 ng/ml, Ang 1 500 ng/ml (FIG. 2B legend)) is “not significantly different than that seen in samples treated with VEGF or Ang 1”. Besides, in experiment [4], the “Phosphorylation of MAPK or AKT above non-stimulated samples” value is given as “Neither Vasculotide nor clustered Vasculotide significantly induced phosphorylation of MAPK or AKT”. In experiment [5] (5 nM versus 20 nM), the “Benefit at lower concentration” value was “seemed to offer more benefit”. Moreover, the “Inflammation (histological score)” value in experiment [5] (5 nM, p=0.0979) is listed as “not significantly different from vehicle”; in experiment [5] (20 nM, p=0.034), “only slightly increased”. The “Regranulation and neovascularization (histological score)” value in experiment [5] (20 nM and 5 nM p=0.0006) was “profound increases in regranulation and neovascularization”. For the same substance, the “Wound margin (pixel counts) at day 2” value in experiment [5] (20 nM topical, p=0.05, n=4) is “Significant decreases in wound margin”. In addition, in experiment [5] (20 nM, p=0.0004 and 5 nM, p=0.029), the “Re-epithelialization (histological score)” value is listed as “delayed re-epithelialization”. In addition, in experiment [5] (both concentrations, compared to vehicle and bFGF), the “Overall collagen deposition (Masson's Trichrome)” value is “dramatically increased”. Further, the “Lymphangiogenesis (podoplannin-positive vessels)” value in experiment [5] (immunohistochemistry) was “not accompanied by an increase in lymphangiogenesis”. For the same substance, the “PECAM1- and Pan EC-positive vessels within the granulation tissue” value in experiment [5] (immunohistochemistry, 5 nM and 20 nM) was “dramatic increases in the number of PECAM1- and Pan EC-positive vessels”. Moreover, the “Margin closure for the duration of the assay” value in experiment [5] (topical, days 0-7) is reported as “continued at an accelerated pace”.

The values above are taken from patent US8957022B2, “Multimeric tie 2 agonists and uses thereof in stimulating angiogenesis” (Sunnybrook Health Sciences Centre, priority 2006, dated 2015).
